From patent US7968516B2, “Treatment of multiple sclerosis and other autoimmune diseases by use of calpin inhibitors” (ProTor Pharma Corporation, priority 2004, dated 2011)
Where a SMILES comes first, the peptide text is derived from it. [ ]: non-standard residue; d: D form. Cya = N[CH](CS(=O)(=O)O)C(=O)O

Key:
[1] = test system: spinal cord axons of EAE mice; experiment: Experiment 4: axonal integrity by LFB staining; assay type: in vivo; conditions: day 30 post-immunization
Excerpt: Evaluation of axonal integrity using LFB staining: Spinal cord tissue was taken from mice at day 30 post-immunization, approximately 13 days into the chronic phase of EAE. Myelin is stained a blue color by LFB, and the appearance of a normal myelin-coated axon, taken from spinal cord tissue, is shown longitudinally in FIG. 8A.

[2] = test system: outer hair cells of the cochlea; experiment: Experiment 6: acoustic trauma, outer hair cell counts; assay type: in vivo, chinchillas; conditions: 7 mg/kg/day i.p. for seven days; as a function of distance from apex of cochlea
Description: (§1) Twelve chinchillas were divided into treatment and control groups (six animals each). The treatment groups received 7 mg/kg/day CLA i.p., for seven days. The control groups received an identical volume of PBS vehicle. Starting on day 0, all of the animals were exposed to a 105 decibel sound pressure level (SPL) noise with a frequency band centered on 4 kilohertz (kHz). The noise exposure lasted for 48 hours, ending two days after the beginning of the dose. Approximately 4 weeks after the noise exposure and dosing, the animals were anesthetized, tracheotimized, and placed upon a heating pad (37 degrees C.). A silver-ball electrode was attached to the round window of the left and right ears to record the compound action potential (CAP). CAP input functions were recorded at 0.5, 1, 2, 4, 8, 16 kHz tone burst levels generated by a digital-to-analog converter attached to a computer. The CAP threshold shift is the change in sound level required to generate an action potential at the electrode subsequent to noise exposure, and increases in the threshold shift reflect increased hearing loss. […] After the CAP threshold shifts were measured, the animals were decapitated, and the cochleae were removed. The hair cells from 11 cochleae were evaluated histologically. […] The numbers of outer hair cells (#OHC) were counted as a function of the distance from the apex of the cochlea. […]

[3] = test system: spinal cord white matter of EAE mice; experiment: Experiment 2: Luxol Fast Blue staining, myelin content of spinal cord; assay type: in vivo; conditions: lumbar spinal cord, CLA-treated EAE mice
Description: Luxol Fast Blue (LFB) Staining of Spinal Cord Tissues: This staining method, which identifies changes in myelin content of CNS tissues, was performed as previously described (39). Six-10 μm tissue sections were prepared from the lumbar spinal cords of all mice at the end of the experiment. The sections were stained with LFB and counterstained with eosin and cresyl violet to observe changes in the myelin content of the control and treatment groups: A: CFA control; B: MOG/CFA immunized: C; MOG/CFA immunized and CLA-treated. 20× magnification. All myelin containing regions stain blue.

[4] = test system: chinchillas exposed to 105 decibel SPL noise; experiment: Experiment 6: acoustic trauma, compound action potential (CAP) threshold shift; assay type: in vivo; conditions: 7 mg/kg/day i.p. for seven days; about 4 weeks after noise exposure
Description: as §1

[5] = Experiment 7: plasma and retina concentrations after oral CLA-acetal; assay type: in vivo, Sprague-Dawley rats; conditions: after 10 mg/kg oral CLA-acetal
Description: Male Sprague-Dawley rats (n=5 per time point, weight 200-250 g) were administer 10 mg/kg CLA-acetal by oral gavage, formulated as a 0.6% solution in phosphate-buffered saline. At 0.1, 0.25, 0.5, 1, 2, 4, 8, 12 and 24 hours, the rats were anesthetized, blood samples were collected, and the retinas were isolated. The plasma samples (200 μL) were treated with 1 mL methanol and centrifuged to remove protein. The supernatants from centrifugation were evaporated, and the residue was taken up in 0.02% aqueous ammonium heptafluorobutyrate (1 mL). The retina samples were homogenized, treated with methanol, centrifuged, and evaporated, and the residue was taken up in 0.02% aqueous ammonium heptafluorobutyrate (1 mL). The plasma and retinal concentrations of CLA and CLA-acetal were determined by liquid chromatography followed by turbo ion spray mass spectrometry on an MDS-Sciex API 4000 triple-quadropole mass spectrometer equipped with a turbo ion spray source. Elution peaks yielding ions corresponding to CLA or CLA-acetal were integrated and used to determine the amount of compound present, by reference to standards. Data reduction was performed using Sciex Analyst version 1.3 software. The peak concentrations (Cmax) were estimated from the concentrations of CLA measured over time.

calpain = experiment: Experiment 2: immunofluorescent staining for calpain, CD11b and CD45 in spinal cord white matter; assay type: in vivo; conditions: untreated versus CLA-treated EAE mice
Description: Expression of Calpain in Spinal Cord White Matter: Expression of calpain was determined in spinal cord tissues collected from all experimental and control groups of mice at the end of the experiment. Sections of paraformaldehyde-fixed tissues were stained with antibodies against calpain (FITC conjugated), CD11b (MΦ/microglia marker)(Texas Red-conjugated) and CD45 (leukocyte common antigen) (FITC-conjugated). Referring to FIG. 5, six 10 μm sections were stained with anti-calpain antibody and specific cell marker antibodies (CD45, CD11b). Positive staining for calpain (A, B, C); cells positive for MΦ/microglia marker (CD11b^+) (D, E, F); cells positive for leukocyte common antigen (CD 45^+)(G, H, I). 20× magnification. […] All leukocytes including MΦ, but not microglia, are stained with CD45.

[6] = test system: MOG aa35-55 induced EAE in C57BL/6J mice; experiment: Experiment 3: EAE clinical scores, CLA twice daily after disease process started; assay type: in vivo
Description: (§2) Clinical evaluation: Mice were evaluated daily for clinical signs of disease for up to 19 days after inoculation. Clinical severity was assessed on a scale of 0-6 as follows: • […] abnormality • 1 ? mild hind limb weakness (some difficulty righting themselves when turned on their backs), sometimes associated with a weak or floppy tail. • 2 ? moderate hind limb weakness associated with a floppy tail. • 3 ? paralysis of hind limbs, sometimes more marked on one side, but no forelimb weakness. • 4 ? hind leg paralysis accompanied by forelimb weakness. • 5 ? quadriplegia; paralysis of both hind limbs and forelimbs. • 6 ? moribund or death.
To induce EAE, mice were each inoculated once with MOG aa35-55 in Complete Freund's Adjuvant (CFA) and Pertussis toxin as previously described. Thirty 7 to 8-week-old female C57BL/6J mice (Jackson Laboratories, Bar Harbor, Mass.) were used in this experiment. […] Controls included two groups of 4 mice for CLA only and CFA/PT only and 4 were left as normal controls. CLA was dissolved in PBS and each mouse in the treatment group was injected i.p. with 200 μl of PBS containing 0.5 mg of CLA every 12 hours until the end of the experiment on day 25 pi. Mice were evaluated daily for clinical signs and symptoms of EAE and graded on a 0-6 scale for up to 25 days after inoculation as detailed above. Scores of asymptomatic mice (score=0) were included in the calculation of the daily mean clinical score for each group.

[7] = test system: spinal cord white matter of EAE mice; experiment: Experiment 2: H&E staining, cellular infiltration of spinal cord white matter; assay type: in vivo; conditions: CLA-treated EAE mice, tissues at end of experiment
Description: Hematoxylin and Eosin Staining (H&E): H&E staining was used to show cellular infiltration of spinal cord white matter in mice with acute EAE in comparison with other groups of CFA control and CLA-treated EAE mice, as previously described (14). All staining was performed on tissues that were collected at the end of the experiment. In FIG. 3, 6-10 μm tissue sections were prepared from spinal cords of all mice at the end of the experiment. These tissues were stained with H&E to show inflammatory infiltration (indicated by arrows). A: CFA control; B: MOG/CFA immunized; C: MOG/CFA immunized and CLA-treated. 20× magnification.

[8] = test system: MOG aa35-55 induced EAE in C57BL/6J mice; experiment: Experiment 1: EAE clinical scores, CLA started at immunization; assay type: in vivo
Description: To induce EAE, 7-8 week-old female C57BL/6J mice (Jackson Laboratories, Bar Harbor, Md.) were used. Animals were housed according to IACUC regulations in an AAALAC certified facility. Each was injected subcutaneously (s.c.) at two sites on the flanks with 300 μg of myelin oligodendrocyte glycoprotein (MOG) peptide 35-55 in Complete Freund's Adjuvant (CFA) twice with a one week interval between injections, as previously reported (14). Pertussis toxin (PT) was given intraperitoneally on days 0 and 2 post-immunization. CLA was administered to 12 MOG/CFA immunized mice, i.p. at an initial dose of one mg/mouse, starting on the day of the second immunization, followed by 0.5 mg/mouse/day until the end of the experiment, which lasted 19 days. […]
as §2, with “death. […]” for “death.”

[9] = test system: amyloid precursor protein (APP); experiment: Experiment 4: accumulation of amyloid precursor protein in axons; assay type: in vivo, mice; conditions: spinal cord, day 30, anti-APP antibody
Excerpt: Spinal cord tissue taken from mice at day 30 was stained with a fluorescently-labeled anti-APP antibody.

[10] = test system: chronic phase of EAE in C57BL/6J mice; experiment: Experiment 4: chronic phase EAE clinical scores; assay type: in vivo; conditions: 30 days
Description: as §2
The chronic phase of EAE occurs after the clinical score of an affected mouse reaches a plateau at the highest level of the acute phase of the disease. In this chronic phase, more extensive damage occurs to nerve axons, beyond the demyelination observed in the acute phase of the disease (22). EAE was induced in 7-8 week-old female C57BL/6J “mice” by subcutaneous (s.c.) injection in each flank with 100 μl of an emulsion containing […] Freund's Adjuvant supplemented with 500 μg heat inactivated mycobacterium tuberculosis (Sigma St. Louis, Mo.) and 300 μg MOG 35-55. 100 ng of Pertussis toxin (PT) was given intraperitoneally on days 0 and 2 post-immunization. […]

[11] = test system: cochlear and vestibular hair; conditions: cited from earlier work
[12] = cited from earlier work
EAE in rats = conditions: cited from earlier work
[13] = CLA 0.5 mg i.p. every 12 hours from day 7 pi
[14] = CLA twice daily started after signs of stage 2 EAE

CC(C)CC(NC(=O)C(N)CS(=O)(=O)O)C(=O)NC(C=O)CCCNC(=N)N (stereo not drawn) [CLA, cysteyl-leucyl-argininal] (H-[Cya]-Leu-Arg-aldehyde; configuration not given here)
axonal integrity (LFB staining) [1]: marked improvement in axonal integrity | numbers of outer hair cells (#OHC) [2]: increase in the number of outer hair cells at all distances from the apex | demyelination (LFB staining) [3]: fewer areas of demyelination | CAP threshold shift [4]: decreased the CAP threshold shift | concentrations in retina compared with plasma [5]: much higher in retina than in plasma | CD45+ cells (leukocytes) (calpain): only marginally higher than CLA-treated EAE mice | expression of calpain in spinal cord white matter (calpain): elevated in untreated EAE mice (FIG. 5B) as compared with CLA-treated EAE mice | presence of macrophages/microglia (CD11b+ cells) (calpain): higher in untreated EAE mice (FIG. 5E) than CLA-treated EAE | onset of signs of EAE [6, 13]: 15 day pi | severity of EAE symptoms [6, 13]: did not develop severe paralysis of the limbs | average clinical score (ACS) on day 17 pi [6, 14]: 1.60 | clinical score on day 25 pi [6, 14]: less than two | clinical score on day 25 pi ([6]; D7 CLA-treated MOG/CFA mice): less than one | average clinical score (ACS) on day 17 pi ([6]; D7 CLA-treated MOG/CFA mice, 0.5 mg i.p. every 12 hours): 0.5 | health of CLA only mice ([6]; control mice, CLA only): remained healthy | cellular infiltration and perivascular cuffing (H&E) [7]: moderate cellular infiltration and perivascular cuffing | average clinical score (ACS) ([8]; MOG/CFA immunized mice, CLA i.p. one mg/mouse then 0.5 mg/mouse/day, scale 0-6, 19 days): 1.86 | effect of CLA only or CFA/CLA on mice ([8]; control mice not immunized with MOG): no effect | accumulation of APP in axons [9]: reduces accumulation of APP | maximum clinical score ([10]; CLA 2 mg/mouse/day i.p. from day 7 (prior to onset)): below 0.5 | maximum clinical score ([10]; CLA 2 mg/mouse/day i.p. from day 12 (after onset)): < 1.0

CC(=O)N[C@@H](CC(C)C)C(=O)N[C@@H](CC(C)C)C(=O)N[C@H](C=O)CCCNC(=N)N [leupeptin]
protection from gentamycin ototoxicity [11]: protects cochlear and vestibular hair from gentamycin oxotoxicity | cellular permeability [12]: poor cellular permeability | suppression of EAE (EAE in rats): suppressing EAE
